What was measured:
[1] = test system: HCV replicon cell line (Huh-7); test: Alamar Blue cytotoxicity assay step; type: cell-based
[2] = test system: HCV replicon cell line (NS3 protein); test: Western analysis of NS3 protein in the HCV replicon cell line; type: cell-based, Hepatitis C virus
Procedure: Experiments were done in duplicate. Western analysis was performed according to the instructions for Amershams Chemiluminescence Immunology Kit (NEL105 Renaissance) using a Molecular Dynamics Storm 860 phosphoimager and associated software. The primary and secondary antibody dilutions were at 1 to 5,000. Antisera was generated by immunizing rabbits with purified NS3 protease made from an E. Coli expression vector encoding the first 181 amino acids of HCV 1a NS3 with subsequent boosts.
Bleeds were tested weekly and boosts continued until a positive signal on a control western was seen. Secondary antibody was a BioRad (#170–6515) Goat anti-Rabbit IgG HRP Conjugate. The protein samples for western analysis were from the same wells used for the FRET assay and were prepared by the addition of an equal volume of 2×SDS-PAGE buffer to the FRET assay mixture, heating and loading on a 10% gel for SDS-PAGE. Interferon alpha (IFN-α) was obtained from Sigma (#I-4276) and stored as recommended.

[3] = test system: HCV replicon cell line (HCV RNA); test: Quantitative RT-PCR of HCV RNA in the HCV replicon cell line
[4] = test system: HCV replicon cell line (NS3 protease activity); test: HCV replicon FRET assay (NS3 protease activity as indirect measure of HCV RNA replication)
Procedure: The HCV replicon cell line was isolated from colonies as described by Lohman et al. al. (Lohman, supra) and used for all experiments.
These cell lines were maintained at 37° C., 5% CO2, 100% relative humidity in DMEM (Life Technologies #11965-084) with 10% heat inactivated calf serum (Sigma #F-2442), 100 U/ml of penicillin/streptomycin (Life Technologies #15140-122), Geneticin at 1 mg/ml (Life Technologies #10131-027). One of the cell lines which had approximately 3,000 copies of HCV replicon RNA/cell was used for development of the assay.
To perform the HCV FRET screening assay, 96-well cell culture plates were used.
The assay reagent was made as follows: 5× cell Luciferase cell culture lysis reagent from Promega (#E153A) diluted to 1× with dH2O, NaCl added to 150 mM final, the FRET peptide diluted to 20 uM final from a 2 mM stock. Cells were trypsinized, placed into each well of a 96-well plate and allowed to attach overnight. The next day, the test compounds were added to columns 1 through 10; column 11 was media only, and column 12 contained a titration of interferon as a control (1000 units for A12, B12, 100 units for C12, D12, 10 units for E12, F12 and 1 unit for G12, H12). In addition, replicon cells in A12, B12 can be replaced, if desired, with naïve Huh-7 cells as a negative background control. The plates were then placed back in the incubator.
Subsequent to addition of the test compounds described above (FRET Assay Preparation), at various times the plate was removed and Alamar Blue solution (Trek Diagnostics, #00–100) was added per well as a measure of cellular toxicity.
Compound analysis was determined by quantification of the relative HCV replicon inhibition and the relative cytotoxicity values.

[5] = FIG. 6A, titration 0.1 to 1,000 units per milliliter, 96 hours of incubation
[6] = interferon titration in HCV replicon cell line

Substance: interferon-α [IFN-α]
- cytotoxicity (Alamar Blue) ([1]; highest concentration of IFN-α, 1000 units, FIG. 7B wells A12 and B12): Approximately 18%
- cytotoxicity (Alamar Blue), in words ([1]; lower concentrations of IFN-α (below 1000 units)): no apparent Alamar Blue staining change
- EC50, Western [2, 5]: 1.9 units of IFN-α per milliliter
- EC50, western assay [2, 6]: 1.9 units
- EC50, RT-PCR [3, 5]: 5.3 units of IFN-α per milliliter
- EC50, qRT-PCR assay [3, 6]: 5.3 units
- EC50, FRET [4, 5]: 2.9 units of IFN-α per milliliter
- EC50, FRET assay [4, 6]: 2.9 units
- EC50 in IFN-α control samples of the compound plate, in words ([4]; random compound plate control titration 1000, 100, 10, 1 units, FIG. 7A): close to or slightly lower than the lowest concentration of IFN-α used

— US7195885B2, “Hepatitis C virus assays” (Bristol-Myers Squibb Company, priority 2002, dated 2007)
